Experimental data published in ChEMBL document CHEMBL3046128, “Sustainable synthesis of flavonoid derivatives, QSAR study and insecticidal activity against the fall armyworm, Spodoptera frugiperda (Lep.: Noctuidae)” (2010).

System: Spodoptera frugiperda
Test: Insecticidal activity against first-instar larval-stage of Spodoptera frugiperda (fall armyworm) strain corn in compound-pretreated corn leaves assessed as mortality rate at 2000 mg/kg
Format: functional

Structure (SMILES)	LT50 [h]	log10LT50
O=c1cc(-c2ccccc2)oc2cc(O)ccc12 [7-HYDROXYFLAVONE]	106.94	2.029
O=c1c2ccccc2oc2ccccc12 [XANTHONE]	53.78	1.731
Cc1ccc2c(=O)cc(-c3ccccc3)oc2c1 [7-METHYLFLAVONE]	105.46	2.023
O=c1cc(-c2ccccc2)oc2ccc(Br)cc12 [6-BROMOFLAVONE]	43.86	1.642
O=c1cc(-c2ccccc2)oc2cc(F)ccc12 [7-FLUOROFLAVONE]	63.76	1.805
O=C1CC(c2ccccc2)Oc2ccccc21 (stereo not given) [FLAVANONE]		1.656
O=c1ccoc2ccccc12 [CHROMONE]	55.42	1.744
O=c1cc(-c2ccccc2)oc2cc(Cl)ccc12 [7-CHLOROFLAVONE]	29.33	1.467
COc1ccc2c(=O)cc(-c3ccccc3)oc2c1 [7-METHOXYFLAVONE]	114.38	2.058
O=c1cc(-c2ccccc2)oc2ccc(Cl)cc12 [6-CHLOROFLAVONE]	53.36	1.727
Cc1ccc2oc(-c3ccccc3)cc(=O)c2c1 [6-METHYLFLAVONE]	93	1.968
O=c1cc(-c2ccccc2)oc2cc(Br)ccc12 [7-BROMOFLAVONE]	89.73	1.953
O=c1cc(-c2ccccc2)oc2ccccc12 [FLAVONE]	51.19	1.709
